Like-named read-outs stand apart in the source and are kept apart here.
Test system: metastatic or surgically unresectable urothelial cancer harboring select FGFR genetic alterations
Conditions: chemo relapsed/refractory
Text: The study comprises a Screening Phase (molecular screening at any time prior to first dose and study screening within 30 days of first dose), a treatment phase, and a post-treatment follow-up phase. The treatment phase comprises the period from first dose until the end-of-treatment visit. The follow-up phase extends until the subject has died, withdraws consent, is lost to follow-up, or the end of study, whichever comes first.
Included patients were adults with measurable urothelial cancer per Response Evaluation Criteria in Solid Tumors version 1.1.
Patients were required to have at least 1 FGFR2/FGFR3 mutation or fusion per central lab testing of RNA from formalin-fixed, paraffin-embedded tumor samples, using a custom reverse transcriptase polymerase chain reaction assay.
Patients were contacted every 12 weeks for survival assessment.
The study was designed to enroll 180 patients with specified FGFR alterations. Of these, ≥88 were required in the selected regimen. […] Responses were assessed by investigators and an independent radiological review committee. Progression-free survival and overall survival were estimated using Kaplan-Meier product limit method. Data from patients who were progression free and alive or with unknown status were censored at last tumor assessment. Efficacy end points were analysed at primary analysis cut-off.

[1] = 6 mg QD, Any FGFR alterations, n=73
[2] = 6 mg QD, FGFR fusions (excluding mutations), 2 responders
[3] = 6 mg QD, FGFR fusions (excluding mutations), n=10
[4] = 6 mg QD, FGFR mutations (excluding fusions), 22 responders
[5] = 6 mg QD, FGFR mutations (excluding fusions), n=59
[6] = 6 mg QD, FGFR mutations and fusions, 3 responders
[7] = 6 mg QD, FGFR mutations and fusions, n=4
[8] = 6 mg QD, Fusion: FGFR2-CASP7/FGFR3-BAIAP2L1, n=1
[9] = 6 mg QD, Mutation and fusion: FGFR3-G370C/FGFR2-BICC1, n=1
[10] = 6 mg QD, Mutation and fusion: FGFR3-G370C/FGFR3-TACC3 V1, n=1
[11] = 6 mg QD, Mutation and fusion: FGFR3-R248C/FGFR3-S249C/FGFR3-TACC3 V1, n=1
[12] = 6 mg QD, Mutation and fusion: FGFR3-R248C/FGFR3-TACC3 V1, n=1
[13] = 6 mg QD, Mutation: FGFR3-G370C/FGFR3-S249C, n=1
[14] = 6 mg QD, Mutation: FGFR3-R248C/FGFR3-Y373C, n=1
[15] = 8 mg QD, Any FGFR alterations, n=87
[16] = 8 mg QD, FGFR fusions (excluding mutations), 4 responders
[17] = 8 mg QD, FGFR fusions (excluding mutations), n=23
[18] = 8 mg QD, FGFR mutations (excluding fusions), 31 responders
[19] = 8 mg QD, FGFR mutations (excluding fusions), n=64
[20] = 8 mg QD, Fusion: FGFR2-CASP7/FGFR3-TACC3 V3, n=1
[21] = 10 mg 7 on/7 off, Any FGFR alterations, n=29
[22] = 10 mg 7 on/7 off, FGFR fusions (excluding mutations), n=2
[23] = 10 mg 7 on/7 off, FGFR mutations (excluding fusions), 5 responders
[24] = 10 mg 7 on/7 off, FGFR mutations (excluding fusions), n=24
[25] = 10 mg 7 on/7 off, FGFR mutations and fusions, 1 responder
[26] = 10 mg 7 on/7 off, FGFR mutations and fusions, n=3
[27] = 10 mg 7 on/7 off, Mutation and fusion: FGFR3-R248C/FGFR3-TACC3 V1, n=1
[28] = 10 mg 7 on/7 off, Mutation and fusion: FGFR3-S249C/FGFR3-BAIAP2L1, n=1
[29] = 10 mg 7 on/7 off, Mutation and fusion: FGFR3-S249C/FGFR3-Y373C/FGFR2-CASP7/FGFR3-BAIAP2L1/FGFR3-TACC3 V1/FGFR3-TACC3 V3, n=1

COc1cc(OC)cc(N(CCNC(C)C)c2ccc3ncc(-c4cnn(C)c4)nc3c2)c1 [erdafitinib, N-(3,5-dimethoxy-phenyl)-N′-(1-methylethyl)-N-[3-(1-methyl-1H-pyrazol-4-yl)quinoxalin-6-yl]ethane-1,2-diamine]
Confirmed complete response (CR) [1]: 3 (4.1%) | Confirmed partial response (PR) [1]: 24 (32.9%) | Disease control rate (CR + PR + SD) [1]: 55 (75.3%) | Inevaluable [1]: 4 (5.5%) | Progressive disease (PD) [1]: 14 (19.2%) | 6-month progression-free survival rate (95% CI), among responders [2]: 0.50 (0.01, 0.91) | 9-month progression-free survival rate (95% CI), among responders [2]: 0.50 (0.01, 0.91) | 12-month progression-free survival rate (95% CI), among responders [2]: 0.50 (0.01, 0.91) | Confirmed complete response (CR) [3]: 0% | Confirmed partial response (PR) [3]: 2 (20.0%) | Disease control rate (CR + PR + SD) [3]: 9 (90.0%) | Inevaluable [3]: 1 (10.0%) | Objective response rate (CR + PR) [3]: 2 (20.0%) | Progressive disease (PD) [3]: 0% | 6-month progression-free survival rate (95% CI), among responders [4]: 0.41 (0.21, 0.60) | 9-month progression-free survival rate (95% CI), among responders [4]: 0.27 (0.11, 0.46) | 12-month progression-free survival rate (95% CI), among responders [4]: 0.18 (0.06, 0.36) | Confirmed complete response (CR) [5]: 2 (3.4%) | Confirmed partial response (PR) [5]: 20 (33.9%) | Disease control rate (CR + PR + SD) [5]: 43 (72.9%) | Inevaluable [5]: 2 (3.4%) | Objective response rate (CR + PR) [5]: 22 (37.3%) | Progressive disease (PD) [5]: 14 (23.7%) | 6-month progression-free survival rate (95% CI), among responders [6]: 0.67 (0.05, 0.95) | 9-month progression-free survival rate (95% CI), among responders [6]: 0.67 (0.05, 0.95) | 12-month progression-free survival rate (95% CI), among responders [6]: 0.33 (0.01, 0.77) | Confirmed complete response (CR) [7]: 1 (25.0%) | Confirmed partial response (PR) [7]: 2 (50.0%) | Disease control rate (CR + PR + SD) [7]: 3 (75.0%) | Inevaluable [7]: 1 (25.0%) | Objective response rate (CR + PR) [7]: 3 (75.0%) | Progressive disease (PD) [7]: 0% | Confirmed complete response (CR) [8]: 0% | Confirmed partial response (PR) [8]: 0% | Disease control rate (CR + PR + SD) [8]: 1 (100.0%) | Inevaluable [8]: 0% | Objective response rate (CR + PR) [8]: 0% | Progressive disease (PD) [8]: 0% | Confirmed complete response (CR) [9]: 1 (100.0%) | Confirmed partial response (PR) [9]: 0% | Disease control rate (CR + PR + SD) [9]: 1 (100.0%) | Inevaluable [9]: 0% | Objective response rate (CR + PR) [9]: 1 (100.0%) | Progressive disease (PD) [9]: 0% | Confirmed complete response (CR) [10]: 0% | Confirmed partial response (PR) [10]: 1 (100.0%) | Disease control rate (CR + PR + SD) [10]: 1 (100.0%) | Inevaluable [10]: 0% | Objective response rate (CR + PR) [10]: 1 (100.0%) | Progressive disease (PD) [10]: 0% | Confirmed complete response (CR) [11]: 0% | Confirmed partial response (PR) [11]: 1 (100.0%) | Disease control rate (CR + PR + SD) [11]: 1 (100.0%) | Inevaluable [11]: 0% | Objective response rate (CR + PR) [11]: 1 (100.0%) | Progressive disease (PD) [11]: 0% | Confirmed complete response (CR) [12]: 0% | Confirmed partial response (PR) [12]: 0% | Disease control rate (CR + PR + SD) [12]: 0% | Inevaluable [12]: 1 (100.0%) | Objective response rate (CR + PR) [12]: 0% | Progressive disease (PD) [12]: 0% | Confirmed complete response (CR) [13]: 0% | Confirmed partial response (PR) [13]: 0% | Disease control rate (CR + PR + SD) [13]: 1 (100.0%) | Inevaluable [13]: 0% | Objective response rate (CR + PR) [13]: 0% | Progressive disease (PD) [13]: 0% | Confirmed complete response (CR) [14]: 0% | Confirmed partial response (PR) [14]: 1 (100.0%) | Disease control rate (CR + PR + SD) [14]: 1 (100.0%) | Inevaluable [14]: 0% | Objective response rate (CR + PR) [14]: 1 (100.0%) | Progressive disease (PD) [14]: 0% | Disease control rate (CR + PR + SD) [15]: 69 (79.3%) | Inevaluable [15]: 2 (2.3%) | Progressive disease (PD) [15]: 16 (18.4%) | 6-month progression-free survival rate (95% CI), among responders [16]: 0.50 (0.06, 0.84) | 9-month progression-free survival rate (95% CI), among responders [16]: 0.50 (0.06, 0.84) | Confirmed complete response (CR) [17]: 0% | Confirmed partial response (PR) [17]: 4 (17.4%) | Disease control rate (CR + PR + SD) [17]: 15 (65.2%) | Inevaluable [17]: 1 (4.3%) | Progressive disease (PD) [17]: 7 (30.4%) | 6-month progression-free survival rate (95% CI), among responders [18]: 0.42 (0.24, 0.59) | 9-month progression-free survival rate (95% CI), among responders [18]: 0.19 (0.07, 0.37) | 12-month progression-free survival rate (95% CI), among responders [18]: 0.19 (0.07, 0.37) | Confirmed complete response (CR) [19]: 3 (4.7%) | Confirmed partial response (PR) [19]: 28 (43.8%) | Disease control rate (CR + PR + SD) [19]: 54 (84.4%) | Inevaluable [19]: 1 (1.6%) | Progressive disease (PD) [19]: 9 (14.1%) | Confirmed complete response (CR) [20]: 0% | Confirmed partial response (PR) [20]: 0% | Disease control rate (CR + PR + SD) [20]: 0% | Inevaluable [20]: 1 (100.0%) | Objective response rate (CR + PR) [20]: 0% | Progressive disease (PD) [20]: 0% | Confirmed complete response (CR) [21]: 1 (3.4%) | Confirmed partial response (PR) [21]: 5 (17.2%) | Disease control rate (CR + PR + SD) [21]: 23 (79.3%) | Inevaluable [21]: 2 (6.9%) | Progressive disease (PD) [21]: 4 (13.8%) | Confirmed complete response (CR) [22]: 0% | Confirmed partial response (PR) [22]: 0% | Disease control rate (CR + PR + SD) [22]: 1 (50.0%) | Inevaluable [22]: 0% | Objective response rate (CR + PR) [22]: 0% | Progressive disease (PD) [22]: 1 (50.0%) | 6-month progression-free survival rate (95% CI), among responders [23]: 0.80 (0.20, 0.97) | 9-month progression-free survival rate (95% CI), among responders [23]: 0.80 (0.20, 0.97) | 12-month progression-free survival rate (95% CI), among responders [23]: 0.60 (0.13, 0.88) | Confirmed complete response (CR) [24]: 1 (4.2%) | Confirmed partial response (PR) [24]: 4 (16.7%) | Disease control rate (CR + PR + SD) [24]: 20 (83.3%) | Inevaluable [24]: 2 (8.3%) | Objective response rate (CR + PR) [24]: 5 (20.8%) | Progressive disease (PD) [24]: 2 (8.3%) | 6-month progression-free survival rate (95% CI), among responders [25]: 0 (NE, NE) | 9-month progression-free survival rate (95% CI), among responders [25]: 0 (NE, NE) | 12-month progression-free survival rate (95% CI), among responders [25]: 0 (NE, NE) | Confirmed complete response (CR) [26]: 0% | Confirmed partial response (PR) [26]: 1 (33.3%) | Disease control rate (CR + PR + SD) [26]: 2 (66.7%) | Inevaluable [26]: 0% | Objective response rate (CR + PR) [26]: 1 (33.3%) | Progressive disease (PD) [26]: 1 (33.3%) | Confirmed complete response (CR) [27]: 0% | Confirmed partial response (PR) [27]: 1 (100.0%) | Disease control rate (CR + PR + SD) [27]: 1 (100.0%) | Inevaluable [27]: 0% | Objective response rate (CR + PR) [27]: 1 (100.0%) | Progressive disease (PD) [27]: 0% | Confirmed complete response (CR) [28]: 0% | Confirmed partial response (PR) [28]: 0% | Disease control rate (CR + PR + SD) [28]: 0% | Inevaluable [28]: 0% | Objective response rate (CR + PR) [28]: 0% | Progressive disease (PD) [28]: 1 (100.0%) | Confirmed complete response (CR) [29]: 0% | Confirmed partial response (PR) [29]: 0%

Reference: patent publication US12691112B2, “FGFR tyrosine kinase inhibitors for the treatment of urothelial carcinoma” (Janssen Pharmaceutica NV, priority 2019, dated 2026)
